Seven compounds from patent US6596718B1, “7-Morpholin-4yl-benzothiazole amide derivatives” (Hoffmann-La Roche Inc., priority 2001, dated 2003) can be followed below.

Series [1] has as its target T1, human adenosine A1 receptor (Homo sapiens, UniProt P30542).
T1 construct: expressed in transfected cells; host or cells: CHO cells, Semliki Forest virus expression system; membrane preparation
T1 sequence (P30542 1-326): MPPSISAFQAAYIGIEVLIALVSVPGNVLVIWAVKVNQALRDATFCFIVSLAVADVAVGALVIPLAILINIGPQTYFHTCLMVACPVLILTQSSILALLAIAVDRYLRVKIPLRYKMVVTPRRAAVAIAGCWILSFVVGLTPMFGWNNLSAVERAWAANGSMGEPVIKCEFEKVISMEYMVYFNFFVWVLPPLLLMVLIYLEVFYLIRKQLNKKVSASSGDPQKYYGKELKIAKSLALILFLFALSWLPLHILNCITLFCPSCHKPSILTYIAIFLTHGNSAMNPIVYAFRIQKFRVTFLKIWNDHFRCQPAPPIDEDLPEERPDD
Briefly: [3H]-DPCPX binding assay, human adenosine A1 receptor (SPA, CHO cell membranes). The settings on record: recombinant human A1 in CHO membranes; [3H]-DPCPX 0.6 nM; Ki by Cheng-Prussoff; read-out: hA1 (pKi) (converted). The method, then: Human Adenosine A1 Receptor
(§1) The human adenosine A1 receptor was recombinantly expressed in chinese hamster ovary (CHO) cells using the semlilki forest virus expression system. Cells were harvested, washed twice by centrifugation, homogenized and again washed by centrifugation. The final washed membrane pellet was suspended in a Tris (50 mM) buffer containing 120 mM NaCl, 5 mM KCl, 2 mM CaCl2 and 10 mM MgCl2 (pH 7.4) (buffer A). The [^3H]-DPCPX (([propyl-^3H]8-cyclopentyl-1,3-dipropyxanthine); 0.6 nM) binding assay was carried out in 96-well plates in the presence of 2.5 μg of membrane protein, 0.5 mg of Ysi-poly-l-lysine SPA beads and 0.1 U adenosine deaminase in a final volume of 200 μl of buffer A. Non-specific binding was defined using xanthine amine congener (XAC; 2 μM). Compounds were tested at 10 concentrations from 10 μM-0.3 nM. All assays were conducted in duplicate and repeated at least two times. Assay plates were incubated for 1 hour at room temperature before centrifugation and then bound ligand determined using a Packard Topcount scintillation counter. IC50, the concentration where 50% of the […] binding is displaced, values were calculated using a non-linear curve fitting program and ki values calculated using the Cheng-Prussoff equation.

Series [2] deals with T2, human adenosine A2A receptor (Homo sapiens, UniProt P29274).
T2 construct: expressed in transfected cells; host or cells: CHO cells, Semliki Forest virus expression system; membrane preparation
T2 sequence (P29274 whole entry): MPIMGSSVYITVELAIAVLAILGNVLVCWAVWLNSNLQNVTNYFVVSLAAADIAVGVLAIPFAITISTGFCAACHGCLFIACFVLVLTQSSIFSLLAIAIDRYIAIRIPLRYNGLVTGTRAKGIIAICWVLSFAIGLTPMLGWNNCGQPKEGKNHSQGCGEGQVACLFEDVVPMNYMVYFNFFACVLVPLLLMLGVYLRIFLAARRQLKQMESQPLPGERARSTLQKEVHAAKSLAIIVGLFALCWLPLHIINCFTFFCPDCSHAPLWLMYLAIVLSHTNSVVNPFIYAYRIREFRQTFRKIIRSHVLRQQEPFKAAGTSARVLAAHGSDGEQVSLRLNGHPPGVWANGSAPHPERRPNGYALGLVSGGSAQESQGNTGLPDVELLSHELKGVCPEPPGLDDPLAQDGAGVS
The series is described as follows: [3H]-SCH-58261 binding assay, human adenosine A2A receptor (SPA, CHO cell membranes). Conditions: recombinant human A2A in CHO membranes; [3H]-SCH-58261 1 nM; Ki by Cheng-Prussoff; read-out: hA2 (pKi) (converted). The method, then: Human Adenosine A2A Receptor
as §1, with “adenosine A2A” for “adenosine A1”, “(buffer A)” for “(buffer A).”, “The [^3H]-SCH-58261 (Dionisotti et al., 1997, Br J Pharmacol 121, 353; 1” for “The [^3H]-DPCPX (([propyl-^3H]8-cyclopentyl-1,3-dipropyxanthine); 0.6”, “counter. IC50 values,” for “counter. IC50,”, “displaced,” for “displaced, values”, “and Ki” for “and ki”

In turn, `COc1ccc(N2CCOCC2)c2sc(C(=O)NCCc3cccc(F)c3)nc12` [Example 57, 4-Methoxy-7-morpholin-4-yl-benzothiazole-2-carboxylic acid [2-(3-fluoro-phenyl)-ethyl]-amide] yielded a melting point of 120 to 122 °C. For the same compound, in series [1], the Ki was 1580 nM. For the same compound, the Ki in series [2] was 20 nM.

`COc1ccc(N2CCOCC2)c2sc(C(=O)NCCc3ccccc3Cl)nc12` [Example 63, 4-Methoxy-7-morpholin-4-yl-benzothiazole-2-carboxylic acid [2-(2-chloro-phenyl)-ethyl]-amide] showed a melting point of 141 to 143 °C. Besides, the Ki in series [1] is 1000 nM. Besides, the Ki in series [2] is 20 nM.

Turning to `COc1cccc(CCNC(=O)c2nc3c(OC)ccc(N4CCOCC4)c3s2)c1` [Example 64, 4-Methoxy-7-morpholin-4-yl-benzothiazole-2-carboxylic acid [2-(3-methoxy-phenyl)-ethyl] amide], the melting point lay in the range of 99 to 101 °C. For the same compound, in series [1], the Ki was 1260 nM. For the same compound, in series [2], the Ki was 25.1 nM.

`COc1ccc(N2CCOCC2)c2sc(C(=O)NCCc3cccc(Cl)c3)nc12` [Example 65, 4-Methoxy-7-morpholin-4-yl-benzothiazole-2-carboxylic acid [2-(3-chloro-phenyl)-ethyl]-amide] came in with a melting point of 109 to 111 °C. Besides, the Ki in series [1] is 501 nM. Also, the Ki in series [2] is 25.1 nM.

Take `COc1ccc(N2CCOCC2)c2sc(C(=O)NCCc3cccc(C)c3)nc12` [Example 71, 4-Methoxy-7-morpholin-4-yl-benzothiazole-2-carboxylic acid (2-m-tolyl-ethyl)-amide]: the melting point was 119 to 121 °C. Also, the Ki in series [1] was 1260 nM. The Ki in series [2] is 25.1 nM.

Take `COc1ccc(N2CCOCC2)c2sc(C(=O)NC(C)c3nc(C)cs3)nc12` (stereo not drawn) [Example 77, 4-Methoxy-7-morpholin-4-yl-benzothiazole-2-carboxylic acid [1-(4-methyl-thiazol-2-yl)-ethyl]-amide]: the melting point fell in the range of 175 to 176 °C. Moreover, in series [1], the Ki was 501 nM. Moreover, in series [2], the Ki was 5.01 nM.

Compound `COc1ccc(N2CCOCC2)c2sc(C(=O)NC(C)Cc3cccs3)nc12` (stereo not drawn) [Example 81, 4-Methoxy-7-morpholin-4-yl-benzothiazole-2-carboxylic acid (1-methyl-2-thiophen-2-yl-ethyl)-amide] returned a melting point of 127 to 129 °C. In series [1], the Ki is 200 nM. In addition, the Ki in series [2] is 1.26 nM.
